Values quoted from earlier work in US20050192267A1, “Use of targeted oxidative therapeutic formulation in treatment of viral diseases” (priority 2004, published 2005).

Columns and labels:
[1] = tested on: Hepatitis C; conditions: chronic Hepatitis C; used alone
[2] = tested on: E. coli; conditions: increasing concentration of peroxide ex-vivo in rabbit or human blood
[3] = tested on: peroxide-sensitive E. coli; conditions: infused into the blood of infected rabbits

SMILES | effectiveness of treatment [1] | direct bactericidal activity [2] | bactericidal effect [3]
NC(=O)c1ncn([C@@H]2O[C@H](CO)[C@@H](O)[C@H]2O)n1 [Ribavirin, ribavirin] | does not appear to be effective | – | –
OO [hydrogen peroxide, Hydrogen peroxide] | – | no evidence of direct bactericidal activity | no bactericidal effect
